Drawing on publication PMC6378277, “Mechanism Underlying Heat Stability of the Rice Endosperm Cytosolic ADP-Glucose Pyrophosphorylase” (Frontiers in Plant Science, 2019), this text covers EC50 for 1 molecule.

SMILES strings stand for the structures. Numbering of substitutions follows the chain as printed.

One assay deals with T1, hybrid L2/pSS (Oryza sativa; Solanum tuberosum, UniProt P23509+Q7G065).
T1 construct: hybrid heterotetramer of whole rice L2 and whole potato SS, E. coli EA345, purified
T1 sequence (P23509 73-521): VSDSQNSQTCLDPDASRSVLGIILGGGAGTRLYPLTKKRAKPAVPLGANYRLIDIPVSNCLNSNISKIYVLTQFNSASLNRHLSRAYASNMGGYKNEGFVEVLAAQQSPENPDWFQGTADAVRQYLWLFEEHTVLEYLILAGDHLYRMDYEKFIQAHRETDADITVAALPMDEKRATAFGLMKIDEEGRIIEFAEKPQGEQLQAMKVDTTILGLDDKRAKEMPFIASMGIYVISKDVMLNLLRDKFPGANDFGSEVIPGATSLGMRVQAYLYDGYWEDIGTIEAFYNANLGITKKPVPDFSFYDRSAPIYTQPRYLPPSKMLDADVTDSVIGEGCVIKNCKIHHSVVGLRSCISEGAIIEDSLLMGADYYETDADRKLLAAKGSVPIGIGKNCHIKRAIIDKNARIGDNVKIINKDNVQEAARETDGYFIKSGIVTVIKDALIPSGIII
T1 sequence (Q7G065 1-518): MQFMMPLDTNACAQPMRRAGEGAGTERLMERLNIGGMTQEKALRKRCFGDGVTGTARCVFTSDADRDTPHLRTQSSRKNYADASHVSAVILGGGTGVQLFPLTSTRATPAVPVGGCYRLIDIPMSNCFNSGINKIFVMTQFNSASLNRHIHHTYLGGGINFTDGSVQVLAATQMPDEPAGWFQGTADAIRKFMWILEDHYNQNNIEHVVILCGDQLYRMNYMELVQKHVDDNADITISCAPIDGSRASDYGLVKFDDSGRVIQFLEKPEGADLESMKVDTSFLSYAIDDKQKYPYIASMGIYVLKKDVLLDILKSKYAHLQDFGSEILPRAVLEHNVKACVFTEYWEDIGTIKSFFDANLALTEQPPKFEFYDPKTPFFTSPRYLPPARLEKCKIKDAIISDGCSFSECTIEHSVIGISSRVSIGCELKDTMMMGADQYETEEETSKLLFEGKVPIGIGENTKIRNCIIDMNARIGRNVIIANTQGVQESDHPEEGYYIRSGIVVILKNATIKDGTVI
The assay can be described thus: AGPase activity, phosphate release (PAMb colorimetric), Hill fit. It is filed as biochemical. The note with it: allosteric activator; ATP and Glc1P, 10 mM MgCl2, pH 8.0, room temperature; enzyme reduced with 10 mM DTT; read-out: A0.5. The source says: AGPase activity, phosphate release (PAMb colorimetric), Hill fit on hybrid L2/pSS

The target of assay [1] is T2, rice AGPase L2/S2b (wild type; parent of L2/S2b^QTC and PQ6) (Oryza sativa, UniProt B7EVB8+Q7G065, B7EVB8:N38Q/B7EVB8:K39T/B7EVB8:N40C/B7EVB8:L379F).
T2 construct: gene AGPL2
T2 sequence (Q7G065 1-518): T1 sequence (Q7G065 1-518)
T2 sequence (B7EVB8 1-479 N38Q/K39T/N40C/L379F): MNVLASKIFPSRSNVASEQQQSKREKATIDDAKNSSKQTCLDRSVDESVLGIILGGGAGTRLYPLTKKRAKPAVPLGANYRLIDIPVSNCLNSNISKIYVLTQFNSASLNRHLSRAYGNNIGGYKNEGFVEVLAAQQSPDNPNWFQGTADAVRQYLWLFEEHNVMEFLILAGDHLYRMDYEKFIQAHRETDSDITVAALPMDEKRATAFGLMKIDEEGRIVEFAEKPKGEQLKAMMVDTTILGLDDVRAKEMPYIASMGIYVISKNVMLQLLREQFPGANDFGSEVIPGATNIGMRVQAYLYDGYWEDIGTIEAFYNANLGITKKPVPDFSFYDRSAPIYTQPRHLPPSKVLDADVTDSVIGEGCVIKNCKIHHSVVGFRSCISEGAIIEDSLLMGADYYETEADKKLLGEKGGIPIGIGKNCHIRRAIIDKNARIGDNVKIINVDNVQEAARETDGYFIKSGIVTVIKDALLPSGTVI
The note with it: read-out: A0.5; allosteric activator; ATP and Glc1P, 10 mM MgCl2, pH 8.0, room temperature; enzyme reduced with 10 mM DTT. The source says: (§1) AGPase activity, phosphate release (PAMb colorimetric), Hill fit on rice AGPase L2/S2b (wild type; parent of L2/S2b^QTC and PQ6)

The target in assay [2] is T3, rice AGPase L2/S2b (wild type; parent of L2/S2b^QTC and PQ6) (Oryza sativa, UniProt B7EVB8+Q7G065, B7EVB8:N38Q/B7EVB8:K39T/B7EVB8:N40C).
T3 construct: gene AGPL2
T3 sequence (Q7G065 1-518): T1 sequence (Q7G065 1-518)
T3 sequence (B7EVB8 1-479 N38Q/K39T/N40C): T2 sequence (B7EVB8 1-479 N38Q/K39T/N40C/L379F) with F379L
As to conditions: read-out: A0.5; allosteric activator; ATP and Glc1P, 10 mM MgCl2, pH 8.0, room temperature; enzyme reduced with 10 mM DTT.
Excerpt: as §1

Assay [3] concerns the target T4, rice AGPase L2/S2b (wild type; parent of L2/S2b^QTC and PQ6) (Oryza sativa, UniProt B7EVB8+Q7G065).
T4 construct: gene AGPL2
T4 sequence (Q7G065 1-518): T1 sequence (Q7G065 1-518)
T4 sequence (B7EVB8 1-479): T2 sequence (B7EVB8 1-479 N38Q/K39T/N40C/L379F) with Q38N, T39K, C40N, F379L
The note with it: read-out: A0.5; allosteric activator; ADP-glucose synthesis with ATP and Glc1P, 10 mM MgCl2, pH 8.0, room temperature; enzyme reduced with 10 mM DTT.
Excerpt: as §1

Take `O=C(O)[C@H](O)COP(=O)(O)O` [3-PGA]: the EC50 on hybrid L2/pSS was 147 ± 3 µM; in assay [1] it was 106 µM; in assay [2], 95 ± 2 µM; in assay [3], 342 ± 30 µM.
